Several values for one entry are separate records, joined by “and”; a condition that tells them apart may be missing. Identical values can stand only once.
Assays:
[1] = test system: Mus musculus; settings: uterotrophic, Active
[2] = test system: Oryctolagus sp.; settings: for LD50: acute; for NOAEL: gavage
[3] = test system: Rattus norvegicus; settings: for LD50 / LC50: acute
[4] = test system: Rattus norvegicus; settings: subchronic, oral
[5] = test system: Mus musculus; settings: for LD50: acute
[6] = test system: Rattus norvegicus; settings: reproduction developmental; oral; M/F; mortality and kidney lesions
[7] = reproduction developmental, oral, gavage, F, Sprague-Dawley
[8] = short-term, duration: 27 days, oral, gavage, Sprague-Dawley

With `CC[C@H](c1ccc(O)cc1)[C@@H](CC)c1ccc(O)cc1` [meso-Hexestrol] as the compound, how does the LEL ([1]; duration: 1 days, injection, subcutaneous) read?
The LEL was 0.00914 mg/animal.

And the LEL ([1]; duration: 1.2 days, injection, subcutaneous)?
The LEL was 0.00914 mg/animal.

How did the LEL ([1]; duration: 7 days, injection, subcutaneous) turn out when `O=C(O)Cc1cc(I)c(Oc2ccc(O)c(I)c2)c(I)c1` [Tiratricol] was run?
The LEL was 1000 mg/kg-day.

What about the LEL ([1]; duration: 7 days, oral) of the same compound?
Its LEL is 1000 mg/kg-day.

For `Oc1ccc(C(c2ccc(O)cc2)C(Cl)(Cl)Cl)cc1` [2,2-Bis(4-hydroxyphenyl)-1,1,1-trichloroethane], which LEL ([1]; duration: 3 days, injection, subcutaneous) is on record?
The LEL was 100 mg/kg-day.

`COc1ccc(-c2coc3cc(O)cc(O)c3c2=O)cc1` [Biochanin A] was tested. Which LEL ([1]; duration: 4 days, oral, diet) did it give?
The LEL was 2.5 mg/day.

Which results are given for `CCCCCCCCc1ccc(Nc2ccc(CCCCCCCC)cc2)cc1` [4,4'-Dioctyldiphenylamine]?
LD50 ([2]; dermal, occlusive, New Zealand): > 7940 mg/kg; LD50 ([3]; oral, gavage, Sprague-Dawley): > 7940 mg/kg; NOEL ([4]; gavage, M, Sprague-Dawley, Hematology: PT increase(tendency) APTT increase): 25 mg/kg-day

With `CCCCCCC(=O)O` [Heptanoic acid] as the compound, how does the NOAEL ([5]; chronic, duration: 80 weeks, dermal, C3H/HeCr) read?
Its NOAEL is 50 mg.

And the LD50 ([2]; dermal, albino)?
The LD50 was ≥ 2000 mg/kg.

And the LC50 ([3]; Inhalation, Sprague-Dawley)?
The LC50 was > 4.6 mg/L.

What about the LD50 ([3]; oral) of the same compound?
The LD50 was 8370 mg/kg.

What about the NOAEL ([3]; developmental, duration: 9 days, oral, gavage, Sprague-Dawley) of the same compound?
Its NOAEL is 1000 mg/kg-day.

What about the NOAEL ([3]; reproduction developmental, duration: 9 days, oral, gavage, F, Sprague-Dawley) of the same compound?
The NOAEL was 1000 mg/kg-day.

And the LOAEL [3, 7]?
Its LOAEL is > 1000 mg/kg-day.

And the NOAEL [3, 7]?
Its NOAEL is < 200 mg/kg-day.

What about the NOAEL ([3]; reproduction developmental, oral, gavage, Sprague-Dawley, generation: F1) of the same compound?
Its NOAEL is ≥ 1000 mg/kg-day and ≤ 2000 mg/kg-day.

What about the LOAEL [3, 8] of the same compound?
The LOAEL was 3500 mg/kg-day.

And the NOAEL [3, 8]?
The NOAEL was 1750 mg/kg-day.

`CCCCCCCCCc1cc2ccccc2c(S(=O)(=O)[O-])c1CCCCCCCCC.CCCCCCCCCc1cc2ccccc2c(S(=O)(=O)[O-])c1CCCCCCCCC.[Ca+2]` [Calcium bis(dinonylnaphthalenesulphonate)] was tested. Which LD50 ([2]; dermal, New Zealand) did it give?
Its LD50 is > 20000 mg/kg.

What about the LC50 ([3]; Inhalation, Wistar) of the same compound?
Its LC50 is > 18 mg/L.

What about the LD50 ([3]; oral, gavage, Sprague-Dawley) of the same compound?
Its LD50 is > 5000 mg/kg.

`O=[N+]([O-])c1ccc(Cl)cc1` [1-Chloro-4-nitrobenzene] was tested. Which NOAEL ([2]; developmental, duration: 13 hours, oral, New Zealand) did it give?
The NOAEL was 15 mg/kg-day.

What about the LD50 ([3]; oral, gavage, Sprague-Dawley) of the same compound?
The LD50 was 530 mg/kg.

What about the NOAEL ([3]; developmental, duration: 14 days, oral, gavage, Sprague-Dawley) of the same compound?
Its NOAEL is 15 mg/kg-day.

What about the NOAEL ([3]; reproduction developmental, duration: 14 days, oral, gavage, F, Sprague-Dawley) of the same compound?
The NOAEL was < 5 mg/kg-day.

And the NOAEL ([3]; reproduction developmental, duration: 167 days, oral, gavage, Sprague-Dawley, generation: F0)?
The NOAEL was 0.7 mg/kg-day.

What about the NOAEL ([3]; reproduction developmental, duration: 167 days, oral, gavage, Sprague-Dawley, generation: F1) of the same compound?
The NOAEL was 5 mg/kg-day.

And the NOAEL ([3]; reproduction developmental, duration: 167 days, oral, gavage, Sprague-Dawley, generation: F2)?
Its NOAEL is 5 mg/kg-day.

Which results are given for `c1ccc2sc(SSc3nc4ccccc4s3)nc2c1` [2,2'-Dithiobisbenzothiazole]?
LD50 ([5]; injection, Intraperitoneal): 2250 mg/kg; LD50 ([5]; injection, intravenous): 180 mg/kg; NOAEL ([5]; developmental, oral, N strain): 10 mg/kg-day; LD50 ([2]; oral): 6200 mg/kg; LD50 ([3]; injection, Intraperitoneal): 3000 mg/kg and 2600 mg/kg; NOAEL (% diet) ([3]; developmental, duration: 22 days, oral, diet, Wistar): 1; NOAEL (% diet) ([3]; reproduction developmental, duration: 22 days, oral, diet, F, Wistar): 0.2; NOAEL ([3]; reproduction developmental, oral, Wistar, hybrid, generation: F1): 10 mg/kg-day; NOAEL ([3]; short-term, duration: 22 days, oral, diet, F, Wistar): 127 mg/kg-day

Which results are given for `C=CC(C)CCC=C(C)C` (stereo not given) [Dihydromyrcene]?
LD50 ([2]; dermal, New Zealand): > 5000 mg/kg; LD50 ([3]; oral, Wistar): > 5000 mg/kg; LD50 ([3]; oral, gavage, Wistar): > 5000 mg/kg

Which results are given for `O=C([O-])c1cc(Oc2ccc(C(F)(F)F)cc2Cl)ccc1[N+](=O)[O-].[Na+]` [Acifluorfen sodium]?
LD50 ([2]; dermal, occlusive, Albino): 1460 mg/kg; NOAEL ([2]; developmental, duration: 24 days, oral, New Zealand): 12 mg/kg-day; NOAEL ([2]; reproduction developmental, duration: 24 days, oral, F, New Zealand): 12 mg/kg-day; LC50 ([3]; Inhalation, albino King (Kng:(SD)BR)): > 1.38 mg/L; LD50 ([3]; oral, CF Nelson): 122 mg/kg; NOAEL ([3]; developmental, duration: 14 days, oral, gavage, Crl:COBS-CD-(SD)BR): 20 mg/kg-day; LEL [6]: 25 mg/kg-day; NOEL [6]: 1.25 mg/kg-day

What does the source list for `CC(C)CC(=O)CC(C)CC(C)C` (stereo not given) [2,6,8-Trimethyl-4-nonanone]?
LD50 ([2]; dermal, occlusive): 9030 mg/kg; LD50 ([3]; oral, gavage): 8470 mg/kg; NOAEL ([3]; reproduction developmental, oral, gavage, CD, generation: F1): 300 mg/kg-day; NOAEL ([3]; reproduction developmental, oral, gavage, F, CD): 100 mg/kg-day

With `CC(=O)Oc1cccc(Oc2ccc(C(F)(F)F)cc2Cl)c1` [2-Chloro-1-(3-acetoxyphenoxy)-4-(trifluoromethyl)benzene] as the compound, how does the LD50 ([2]; dermal, occlusive, New Zealand) read?
The LD50 was > 200 mg/kg.

And the LC50 ([3]; Inhalation, Wistar)?
The LC50 was > 4.13 mg/L.

What about the LD50 ([3]; oral, Crj:CD) of the same compound?
Its LD50 is > 500 mg/kg.

With `Cc1cccc([N+](=O)[O-])c1` [3-Nitrotoluene] as the compound, how does the LD50 ([5]; oral) read?
Its LD50 is 1230 mg/kg.

And the LOAEL ([5]; subchronic, duration: 13 weeks, oral, diet, B6C3F1)?
Its LOAEL is ≥ 123 mg/kg-day and ≤ 133 mg/kg-day.

And the LD50 ([2]; dermal, New Zealand)?
Its LD50 is > 20000 mg/kg.

What about the LD50 ([3]; dermal) of the same compound?
Its LD50 is > 1160 mg/kg.

What about the LC50 ([3]; inhalation) of the same compound?
Its LC50 is > 2.42 mg/L.

What about the LC50 ([3]; inhalation, Sprague-Dawley) of the same compound?
Its LC50 is > 881 mg/m3.

And the LD50 ([3]; oral)?
Its LD50 is 2120 mg/kg and 1070 mg/kg and 1780 mg/kg.

And the LD50 ([3]; oral, Sprague-Dawley)?
The LD50 was 1070 mg/kg.

And the LD50 ([3]; oral, gavage, Wistar)?
Its LD50 is 2200 mg/kg and 2000 mg/kg.

And the LOAEL ([3]; subchronic, duration: 13 weeks, oral, diet, F, Fischer 344)?
Its LOAEL is 60 mg/kg-day.

What about the LOAEL ([3]; subchronic, duration: 13 weeks, oral, diet, M, Fischer 344) of the same compound?
The LOAEL was 60 mg/kg-day.

And the NOEL ([4]; diet, F, Fischer 344, Body Weight Changes: decrease + Food Consumption: decrease + Hematology: Hct decrease, Hgb decrease, RBC decrease, MCV increase, MCH …)?
Its NOEL is < 48 mg/kg-day.

What about the NOEL ([4]; diet, M/F, Fischer 344, Body Weight Changes: decrease + Food Consumption: decrease + Hematology: Hct decrease, Hgb decrease, RBC decrease, MCV increase, MCH …) of the same compound?
The NOEL was < 60 mg/kg-day.

From EPA's ToxValDB 9.5
